Tests used:
MT1 receptor = MT1 receptor (Homo sapiens, UniProt P48039); assay: Melatonin MT1 receptor binding study; conditions: 2-[125I]-iodomelatonin radioligand, competitive binding in triplicate
Description: (§1) The MT1 or MT2 receptor binding experiments are carried out using 2-[^125I]-iodomelatonin as reference radioligand. The radioactivity retained is determined using a liquid scintillation counter.
(§2) Competitive binding experiments are then carried out in triplicate using the various test compounds. A range of different concentrations is tested for each compound. The results enable the binding affinities of the compounds tested (Ki) to be determined.

MT2 receptor = target: T1, MT2 receptor (Homo sapiens, UniProt P49286); assay: Melatonin MT2 receptor binding study; conditions: 2-[125I]-iodomelatonin radioligand, competitive binding in triplicate
T1 sequence (P49286 1-362): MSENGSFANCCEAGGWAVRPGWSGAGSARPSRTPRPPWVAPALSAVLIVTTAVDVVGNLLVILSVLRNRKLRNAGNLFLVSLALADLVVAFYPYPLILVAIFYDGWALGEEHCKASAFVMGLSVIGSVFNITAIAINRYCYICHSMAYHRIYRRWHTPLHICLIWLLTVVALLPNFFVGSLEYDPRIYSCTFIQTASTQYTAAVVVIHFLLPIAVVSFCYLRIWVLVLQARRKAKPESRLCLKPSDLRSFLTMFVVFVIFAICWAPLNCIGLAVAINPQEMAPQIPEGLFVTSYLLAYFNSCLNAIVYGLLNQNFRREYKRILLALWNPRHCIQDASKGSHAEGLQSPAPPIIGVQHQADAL
Description: as §1, §2

MT1 receptor, sequence (P48039 whole entry): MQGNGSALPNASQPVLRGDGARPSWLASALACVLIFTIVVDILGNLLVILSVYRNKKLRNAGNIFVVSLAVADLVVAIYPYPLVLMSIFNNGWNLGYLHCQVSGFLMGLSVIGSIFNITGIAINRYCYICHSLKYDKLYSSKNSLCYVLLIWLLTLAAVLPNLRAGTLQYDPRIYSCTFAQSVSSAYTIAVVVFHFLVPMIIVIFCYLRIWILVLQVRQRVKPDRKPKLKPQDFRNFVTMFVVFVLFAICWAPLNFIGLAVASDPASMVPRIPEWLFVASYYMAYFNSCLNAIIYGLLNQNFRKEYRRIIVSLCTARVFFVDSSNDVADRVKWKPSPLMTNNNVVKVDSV

CCC(=O)NCC(CO)c1cccc2ccc(OC)cc12 (centres unmarked) [Example 1, N-[3-Hydroxy-2-(7-methoxy-1-naphthyl)propyl]propanamide] showed a Ki (MT1 receptor) of 1.4 nM and a Ki (MT2 receptor) of 3.2 nM.
